Patent US20180154170A1, “METHODS AND COMPOSITIONS FOR TREATING MENTAL DISORDERS AND CONDITIONS” (priority 2015, published 2018)

Legend:
[1] = system: AMPA and NMDA receptors in the NAcc; experiment: Tail suspension test with optical reactivation of dentate gyrus positive memory cells, glutamate antagonists infused into the NAcc; assay type: in vivo; conditions: stressed mice; bilateral infusion into NAcc (NBQX 22.3 mM, AP5 38.04 mM, 0.2 μl per hemisphere), 20 min before behavior; compared with saline
Experimental: Glutamate antagonists were bilaterally infused into the NAcc as follows: 0.2 μl per hemisphere of NBQX at a concentration of 22.3 mM to antagonize AMPA (α-amino-3-hydroxy-5-methyl-4-isoxazole propionic acid) receptors and 0.2 μl per hemisphere of AP5 at a concentration of 38.04 mM to antagonize NMDA (N-methyl-D-aspartate) receptors. Dopamine receptor antagonists were bilaterally infused into the NAcc as follows: 0.2 μl SCH23390 at a concentration of 6.16 mM to antagonize D1-like receptors and 0.2 μl raclopride at a concentration of 2.89 mM to antagonize D2-like receptors. A 26-gauge stainless steel double internal cannula (PlasticsOne) was used to bilaterally infuse each drug; the internal cannula was connected with a microsyringe pump by a PE20 tube to control the injection rate at 100 nl min^−1. The injection cannula was left connected for 5 min before removal to allow for diffusion. Finally, all behavior was performed 20 min following drug infusion.
Fibre optic implants on experimental mice were plugged into a patch cord before the tail suspension test. Each subject was hung by its tail from a bar 40 cm from the ground with a single piece of autoclave tape. […] An experimenter blind to each mouse condition and light treatment scored all the tail suspension videos by measuring the total time in seconds that each mouse spent struggling throughout the protocol.

[2] = system: magnocellular and parvocellular BLA neurons; conditions: bath application 10 μM; cells clamped at 0 mV; 10 Hz train; n=6 magnocellular, n=6 parvocellular
Experimental: Male mice (mean-PND 45 days) were anesthetized by isoflurane and their brains were dissected. By using a vibratome (VT1000S, Leica) 300 μm-thick parasagittal slices containing the basolateral amygdala were prepared in oxygenated cutting solution at ˜4° C. Slices were then incubated at −23° C. in oxygenated artificial cerebrospinal fluid (ACSF). The cutting solution contained 3 mM KCl, 0.5 mM CaCl2, 10 mM MgCl2, 25 mMNaHCO3, 1.2 mM NaHPO4, 10 mM d-glucose, 230 mM sucrose, saturated with 95% O/5% CO2 (pH 7.3, osmolarity 340 mOsm). […]
Whole-cell recordings in current-clamp or voltage-clamp mode were performed by using an infrared differential interference contrast microscope (BX51, Olympus) with a water immersion 40× objective (N.A. 0.8), and equipped with four automatic manipulators (Luigs & Neumann) and a CCD camera (Orca R2, Hamamatsu). […] Access resistance was monitored throughout the duration of the experiment and data acquisition was suspended whenever the resting membrane potential was depolarized above −50 mV or the access resistance was beyond 20 MΩ. […]
Optogenetic stimulation was achieved through a 460-nm LED light source (XLED1, Lumen Dynamics) driven by TTL input with a delay onset of 25 μs (subtracted off-line). […] In voltage-clamp cells were held at 0 mV for IPSC measurements, whereas, in current mode, EPSP and action potentials were measured at resting potentials. […]

[3] = reported in reference 28; cited from earlier work

Row | Compound | behavioral effects of optically reactivating dentate gyrus cells labelled by a positive experience in the TST [1] | further results
1 | NC(CCCP(=O)(O)O)C(=O)O (stereo not shown) [AP5] | blocked | –
2 | NS(=O)(=O)c1cccc2c1c([N+](=O)[O-])cc1nc(O)c(O)nc12 [NBQX] | blocked | –
3 | COc1ccc(-c2ccc(=N)n(CCCC(=O)O)n2)cc1 [gabazine] | – | inhibitory postsynaptic currents (IPSCs) evoked by optogenetic stimulation of Ppp1r1b-ChR2+ and Rspo2-ChR2+ fibers [2]: blocked
4 | CNC1(c2ccccc2Cl)CCCCC1=O (stereo not shown) [ketamine] | – | antidepressant effect in patients [3]: rapid effects in a subset of patients
